One molecule from BindingDB's records for patent US12091399 (Boehringer Ingelheim International, 2024) can be followed below.

The target of the experiment is Plasma kallikrein (Homo sapiens, UniProt P03952). The experiment is described as follows: Evaluation of the Inhibition of PKK Using an Endpoint Assay. The protocol: Subsequently, PPACK II (Calbiochem) was added as a stop solution to achieve a final concentration of 1 μM and fluorescence was measured using an Envision Reader (PerkinElmer) with the wavelength excitation setting of 355 nm and the wavelength emission setting of 460 nm.
Sequence of Plasma kallikrein (P03952 20-390 limits assumed): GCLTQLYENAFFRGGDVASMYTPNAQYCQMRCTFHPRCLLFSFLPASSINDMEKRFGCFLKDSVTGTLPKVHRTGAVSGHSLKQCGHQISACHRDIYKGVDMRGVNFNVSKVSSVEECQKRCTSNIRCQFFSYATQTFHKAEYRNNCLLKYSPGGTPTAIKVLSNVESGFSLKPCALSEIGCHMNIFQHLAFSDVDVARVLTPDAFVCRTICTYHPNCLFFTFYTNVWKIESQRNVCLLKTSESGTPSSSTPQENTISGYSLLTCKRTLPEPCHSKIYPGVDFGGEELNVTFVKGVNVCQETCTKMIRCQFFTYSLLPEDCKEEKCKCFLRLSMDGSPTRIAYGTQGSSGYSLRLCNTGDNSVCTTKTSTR
Sequence of Plasma kallikrein (P03952 391-638 limits assumed): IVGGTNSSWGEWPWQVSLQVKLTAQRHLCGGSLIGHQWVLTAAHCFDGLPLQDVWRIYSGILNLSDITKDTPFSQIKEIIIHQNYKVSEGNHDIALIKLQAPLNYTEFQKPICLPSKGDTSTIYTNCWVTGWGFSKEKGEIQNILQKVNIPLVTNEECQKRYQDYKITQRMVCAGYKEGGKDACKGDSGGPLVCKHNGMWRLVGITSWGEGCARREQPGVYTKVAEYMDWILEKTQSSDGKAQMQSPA

Broadly, the IC50 is the point on the concentration scale where inhibition reaches its midpoint. A higher IC50 goes with weaker potency. In turn, `Cc1nc(N2C[C@@H]3[C@@H](N)[C@@H]3C2)ccc1Cn1cc(C(=O)NCc2cc(Cl)ccc2-n2cnnn2)cn1` [US12091399, Example 58] displayed an IC50 of 38 nM.
